What was measured:
MT4 [1] = assay: Concentration required to reduce the viability of mock-infected MT-4 cells; format: functional, Homo sapiens
[2] = test system: Human immunodeficiency virus 2; assay: Concentration required to protect the virus infected cells against viral cytopathicity was measured on HIV-2(ROD) virus strain in MT-4 cells; format: functional, organism-based, MT4
[3] = test system: Human immunodeficiency virus 1; assay: Concentration required to protect the virus infected cells against viral cytopathicity was measured on HIV-1(IIIB) virus strain in MT-4 cells; format: functional, organism-based, MT4
MT4 [4] = conditions: Homo sapiens
[5] = Human immunodeficiency virus 2, MT4
[6] = Human immunodeficiency virus 1, MT4
[7] = mt4, tested as the Zn salt or complex

Compound	CC50 (MT4 [1]; Homo sapiens, MT4) [µM]	EC50 [2, 5] [µM]	EC50 [3, 6] [µM]	further results
Brc1cc(CN2CCCNCCNCCCNCC2)ccc1CN1CCCNCCNCCCNCC1	> 203	0.0035	0.0061	–
c1ccc(-c2cc(CN3CCCNCCNCCCNCC3)cc(CN3CCCNCCNCCCNCC3)c2)cc1	> 198	0.0246	0.206	–
Fc1c(CN2CCCNCCNCCCNCC2)cccc1CN1CCCNCCNCCCNCC1	> 201	0.0734	0.0347	–
c1cc(CN2CCCNCCNCCNCCC2)cc(CN2CCCNCCNCCNCCC2)c1	> 403	0.645	0.323	–
Brc1c(CN2CCCNCCNCCCNCC2)cccc1CN1CCCNCCNCCCNCC1	> 144	0.246	0.138	–
1,1'-[1,4-phenylenebis(methylene)]bis[1,4,8,11-tetraazacyclotetradecane]copper Heptahydrate (7H2O) [listing 1 of 2 here]	–	–	–	EC50 ([2]; mt4): 0.0272 µM; EC50 ([3]; mt4): 0.0181 µM
c1cc(CN2CCNCCNCCNCC2)ccc1CN1CCNCCNCCNCC1	55	2.36	0.322	–
c1ccc(-c2cc(CN3CCCNCCNCCCNCC3)ccc2CN2CCCNCCNCCCNCC2)cc1	> 198	0.08	0.106	–
c1cc(CN2CCCNCCNCCCNCC2)ccc1CN1CCCNCCNCCCNCC1 [listing 1 of 2 here]	–	–	–	CC50 (MT4 [1]; tested as the Zn salt or complex): > 251 µM; EC50 [2, 7]: 0.0024 µM; EC50 [3, 7]: 0.0033 µM
Clc1cc(CN2CCCNCCNCCCNCC2)c(Cl)cc1CN1CCCNCCNCCCNCC1	58	0.0025	0.0107	–
CCN1CCCN(CC)CCN(Cc2ccc(CN3CCCN(CC)CCN(CC)CCCN(CC)CC3)cc2)CCCN(CC)CC1	> 341	14.6	7.79	–
Clc1c(Cl)c(CN2CCCNCCNCCCNCC2)c(Cl)c(CN2CCCNCCNCCCNCC2)c1Cl	9	1.96	0.529	–
c1cc(CCN2CCCNCCNCCCNCC2)ccc1CCN1CCCNCCNCCCNCC1	> 201	69.7	14.9	–
c1cc(CN2CCCNCCNCCNCCC2)cc(CN2CCCNCCNCCCNCC2)c1	> 421	0.759	0.0843	–
1,1'-[1,4-phenylenebis(methylene)]bis[1,4,8,11-tetraazacyclotetradecane]copper Heptahydrate (7H2O) [listing 2 of 2 here]	–	–	–	CC50 (MT4 [4]): > 201 µM
c1ccc(CN2CCCNCCNCCCNCC2)c(CN2CCCNCCNCCCNCC2)c1	> 168	3.13	1.36	–
c1cc(CN2CCCNCCNCCCNCC2)ccc1CN1CCCNCCNCCNCCC1	> 397	0.0556	0.0079	–
c1cc(CN2CCCNCCNCCCNCC2)cc(CN2CCCNCCNCCCNCC2)c1	> 421	0.0422	0.0337	–
c1cc(CN2CCCNCCCNCCNCCC2)ccc1CN1CCCNCCCNCCNCCC1	171	2.01	1.67	–
c1cc(CCCN2CCCNCCNCCCNCC2)ccc1CCCN1CCCNCCNCCCNCC1	283	14.5	0.403	–
c1cc(CN2CCNCCCNCCNCC2)cc(CN2CCNCCCNCCNCC2)c1	> 184	0.0618	0.0408	–

Compound	CC50 (MT4 [1]; Homo sapiens, MT4) [µM]	EC50 [2, 5] [µM]	EC50 [3, 6] [µM]	further results
c1cc(CN2CCCNCCCNCCNCCC2)cc(CN2CCCNCCCNCCNCCC2)c1	> 190	11.7	2.72	–
c1cc(CN2CCNCCNCCNCC2)cc(CN2CCNCCNCCNCC2)c1	20	0.536	0.0751	–
c1cc(CN2CCCNCCNCCCNCC2)ccc1CN1CCCNCCCNCCCNCCC1	> 209	11.6	2.43	–
C1CNCCNCCCNCCNC1	> 1250	150	399	–
c1cc(CN2CCCNCCNCCCNCC2)ccc1CN1CCCNCCNCCCNCC1 [listing 2 of 2 here]	> 421	–	0.0042	–
Cc1cc(CN2CCCNCCNCCCNCC2)c(C)cc1CN1CCCNCCNCCCNCC1	> 208	0.0011	0.0064	–
O=[N+]([O-])c1cc(CN2CCCNCCNCCCNCC2)ccc1CN1CCCNCCNCCCNCC1	> 203	0.0731	0.065	–
NCCCNCCNCCCNCc1ccc(CN2CCCNCCNCCCNCC2)cc1	> 444	0.711	0.373	–
1,1'-[1,4-phenylenebis(methylene)]bis[1,4,8,11-tetraazacyclotetradecane] Palladium Diperchlorate Tetrahydrate (4H2O) [listing 1 of 2 here]	–	–	–	EC50 ([2]; mt4): 59.3 µM; EC50 ([3]; mt4): 31.5 µM
c1cc(CN2CCCNCCCNCCCNCCC2)cc(CN2CCCNCCCNCCCNCCC2)c1	193	71.5	16.7	–
c1cc(CC2CNCCNCCCNCCNC2)ccc1CC1CNCCNCCCNCCNC1	406	0.674	0.506	–
COc1cc(CN2CCCNCCNCCCNCC2)c(OC)cc1CN1CCCNCCNCCCNCC1	> 206	0.0066	0.0058	–
1,1'-[1,4-phenylenebis(methylene)]bis[1,4,8,11-tetraazacyclotetradecane] Palladium Diperchlorate Tetrahydrate (4H2O) [listing 2 of 2 here]	–	–	–	CC50 (MT4 [4]): > 210 µM
Fc1c(F)c(CN2CCCNCCNCCCNCC2)c(F)c(F)c1CN1CCCNCCNCCCNCC1	47	0.0079	0.0079	–
O=[N+]([O-])c1cc(CN2CCCNCCNCCCNCC2)cc(CN2CCCNCCNCCCNCC2)c1	44	0.0569	0.0406	–
Brc1cc(CN2CCCNCCNCCCNCC2)cc(CN2CCCNCCNCCCNCC2)c1	> 192	0.0538	0.0845	–
c1cc(CN2CCCNCCNCCNCCC2)ccc1CN1CCCNCCCNCCCNCCC1	101	3.18	0.318	–
c1cc(CN2CCCNCCCNCCCNCCC2)ccc1CN1CCCNCCCNCCCNCCC1	48	13.7	9.13	–
Cc1ccc(CN2CCCNCCNCCCNCC2)cc1	> 324	1.15	1.42	–
c1cc(CN2CCNCCCNCCNCC2)ccc1CN1CCNCCCNCCNCC1	> 208	0.234	0.167	–
c1cc(CN2CCCNCCNCCNCCC2)ccc1CN1CCCNCCNCCNCCC1	> 421	0.059	0.0253	–

— ChEMBL document CHEMBL1128443, “Synthesis and structure-activity relationships of phenylenebis(methylene)-linked bis-tetraazamacrocycles that inhibit HIV replication. Effects of macrocyclic ring size and substituents on the aromatic linker” (J Med Chem, 1995)
